Laboratory results as given in PubChem BioAssay (NCI).
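Cultured in 96-well plates, cells were exposed to test compound for 48 hours across five concentrations. The concentration for full growth arrest is given as TGI.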

Legend:
Assay in all cases: NCI tumour cell line growth inhibition, 48 h
MALME-3M melanoma = test system: MALME-3M melanoma
LOX IMVI melanoma = test system: LOX IMVI melanoma
K-562 leukemia = test system: K-562 leukemia
UO-31 renal = test system: UO-31 renal
NCI-H226 lung = test system: NCI-H226 lung
SR leukemia = test system: SR leukemia
COLO 205 colon = test system: COLO 205 colon
SF-539 CNS = test system: SF-539 CNS
SK-MEL-28 melanoma = test system: SK-MEL-28 melanoma
SNB-19 CNS = test system: SNB-19 CNS
MDA-N = test system: MDA-N
A549 NSCLC = test system: A549 NSCLC
BT-549 breast = test system: BT-549 breast
HT29 colon = test system: HT29 colon
SK-MEL-2 melanoma = test system: SK-MEL-2 melanoma
T-47D breast = test system: T-47D breast
CAKI-1 renal = test system: CAKI-1 renal
RPMI-8226 leukemia = test system: RPMI-8226 leukemia
TK-10 renal = test system: TK-10 renal
SNB-78 CNS = test system: SNB-78 CNS

Row | Compound | TGI (MALME-3M melanoma) | TGI (LOX IMVI melanoma) | TGI (K-562 leukemia) | TGI (UO-31 renal) | TGI (NCI-H226 lung) | TGI (SR leukemia) | TGI (COLO 205 colon) | TGI (SF-539 CNS) | TGI (SK-MEL-28 melanoma) | TGI (SNB-19 CNS) | TGI (MDA-N) | TGI (A549 NSCLC) | TGI (BT-549 breast) | TGI (HT29 colon) | TGI (SK-MEL-2 melanoma) | TGI (T-47D breast) | TGI (CAKI-1 renal) | TGI (RPMI-8226 leukemia) | TGI (TK-10 renal) | TGI (SNB-78 CNS)
1 | Cc1n[nH]c(=O)n1/N=C/c1cccnc1 | > 100 µM | > 100 µM | > 100 µM | > 100 µM | > 100 µM | > 100 µM | > 100 µM | > 100 µM | > 100 µM | > 100 µM | > 100 µM | > 100 µM | > 100 µM | > 100 µM | > 100 µM | > 100 µM | > 100 µM | > 100 µM | > 100 µM | 
2 | O=S1c2ccc(Cl)cc2CC(SSC2Cc3cc(Cl)ccc3S(=O)c3ccccc32)c2ccccc21 (stereo not given) | > 100 µM | > 100 µM | > 100 µM | > 100 µM | > 100 µM |  | > 100 µM | > 100 µM | > 100 µM | > 100 µM |  | > 100 µM |  | > 100 µM | > 100 µM |  | > 100 µM | > 100 µM | > 100 µM | > 100 µM
3 | CC(C)(C)C(=O)Nc1cccc(-c2ccc[nH]2)n1 | > 100 µM | > 100 µM | > 100 µM | > 100 µM | > 100 µM | > 100 µM | > 100 µM | > 100 µM | > 100 µM | > 100 µM | > 100 µM | > 100 µM | > 100 µM | > 100 µM | > 100 µM | > 100 µM | > 100 µM | 25.5 µM | > 100 µM | 
4 | COC(=O)/C(C#N)=C(\Nc1ccccc1)N1CCCCC1 | > 100 µM | > 100 µM | > 100 µM | > 100 µM | > 100 µM | > 100 µM | > 100 µM | > 100 µM | > 100 µM | > 100 µM | > 100 µM | > 100 µM | > 100 µM | > 100 µM | > 100 µM | > 100 µM | > 100 µM | > 100 µM | > 100 µM | 
5 | COc1ccc(NC(C)=O)cc1N1C(=O)/C(=C\c2cc(OC)c(OC)c(OC)c2)S(=O)(=O)C1c1ccccc1 (stereo not given) | > 100 µM | > 100 µM | > 100 µM | > 100 µM | > 100 µM | > 100 µM | > 100 µM | > 100 µM | > 100 µM | > 100 µM | > 100 µM | > 100 µM | > 100 µM | > 100 µM | > 100 µM | > 100 µM | > 100 µM | > 100 µM | > 100 µM | 
6 | CCOC(=O)c1c(-c2ccccc2)[nH]c2ccc(Cl)cc2c1=O | > 100 µM | > 100 µM | > 100 µM | 70.8 µM | > 100 µM | > 100 µM | > 100 µM | > 100 µM | > 100 µM | > 100 µM | > 100 µM | > 100 µM | > 100 µM | > 100 µM | > 100 µM | 62 µM | > 100 µM | > 100 µM | > 100 µM | 
7 | COc1cc(CCCC(O)COc2cccc3c2C2(O)CCCCCC32)cc(OC)c1 (stereo not given) | 31.8 µM |  | 31.1 µM | 28.9 µM | 33.9 µM |  | 5.4 µM | 28.1 µM | 31.1 µM | 32 µM |  | 30.8 µM |  | 23.9 µM | 35.7 µM |  | 44.4 µM | 42 µM | 28.1 µM | 43.3 µM
8 | CC(=C(C(=O)O)C(=O)O)c1cc(-c2cccs2)cc(-c2ccc(Cl)cc2)c1O | 41 µM | 29.6 µM | > 53.6 µM | 24.5 µM | > 72.2 µM | 37.1 µM | 44.8 µM | 29.8 µM | 36.3 µM | 37.1 µM | 31.4 µM | > 80.8 µM | 34.4 µM | 40.5 µM | > 88.6 µM | 21.3 µM | 40.6 µM | 15.6 µM | 31.9 µM | 
9 | CNC(=O)CN(CC(N)=O)C(=O)NC | > 100 µM | > 100 µM | > 100 µM | > 100 µM | > 100 µM | > 100 µM | > 100 µM | > 100 µM | > 100 µM | > 100 µM |  | > 100 µM |  | > 100 µM | > 100 µM |  | > 100 µM | > 100 µM | > 100 µM | > 100 µM
10 | O=C1/C(=C/c2ccccc2)CCCC/C1=C\c1ccccc1 | > 100 µM | > 100 µM |  | > 100 µM | > 100 µM | > 100 µM | > 100 µM | > 100 µM | > 100 µM | > 100 µM |  | > 100 µM |  | 32 µM | > 100 µM |  | > 100 µM |  | > 100 µM | > 100 µM
11 | C#C[C@]1(O)CC[C@H]2[C@@H]3CCC4=C/C(=N\OCCN5CCCC5)CC[C@]4(C)[C@H]3CC[C@@]21C | 23.4 µM | 33 µM | > 39.2 µM | 32.9 µM | 55.5 µM | 13.3 µM | 43.1 µM | 28.2 µM | 44.6 µM | 32.2 µM | 11.3 µM | > 59.8 µM | 43.6 µM | 29.7 µM | 24.4 µM | 60.4 µM | 39.1 µM | 13.2 µM | 38.3 µM | 
12 | Cc1ncc([N+](=O)[O-])n1CCNC(=O)CCn1ccnc1[N+](=O)[O-] | > 100 µM | > 100 µM | > 100 µM | > 100 µM | > 100 µM | > 100 µM | > 100 µM | > 100 µM | > 100 µM | > 100 µM | > 100 µM | > 100 µM | > 100 µM | > 100 µM | > 100 µM | > 100 µM | > 100 µM | > 100 µM | > 100 µM | 
